Source: publication PMC10266040 (Proceedings of the National Academy of Sciences of the …, 2023)
Substitutions are numbered along the chain they refer to.

Tests used:
ETR1 [1] = biological target: T1, ETR1 (Arabidopsis thaliana, UniProt P49333, K91R); assay: saturable […]ethylene radioligand binding to yeast expressing the mutant
T1 sequence (P49333 1-738 K91R): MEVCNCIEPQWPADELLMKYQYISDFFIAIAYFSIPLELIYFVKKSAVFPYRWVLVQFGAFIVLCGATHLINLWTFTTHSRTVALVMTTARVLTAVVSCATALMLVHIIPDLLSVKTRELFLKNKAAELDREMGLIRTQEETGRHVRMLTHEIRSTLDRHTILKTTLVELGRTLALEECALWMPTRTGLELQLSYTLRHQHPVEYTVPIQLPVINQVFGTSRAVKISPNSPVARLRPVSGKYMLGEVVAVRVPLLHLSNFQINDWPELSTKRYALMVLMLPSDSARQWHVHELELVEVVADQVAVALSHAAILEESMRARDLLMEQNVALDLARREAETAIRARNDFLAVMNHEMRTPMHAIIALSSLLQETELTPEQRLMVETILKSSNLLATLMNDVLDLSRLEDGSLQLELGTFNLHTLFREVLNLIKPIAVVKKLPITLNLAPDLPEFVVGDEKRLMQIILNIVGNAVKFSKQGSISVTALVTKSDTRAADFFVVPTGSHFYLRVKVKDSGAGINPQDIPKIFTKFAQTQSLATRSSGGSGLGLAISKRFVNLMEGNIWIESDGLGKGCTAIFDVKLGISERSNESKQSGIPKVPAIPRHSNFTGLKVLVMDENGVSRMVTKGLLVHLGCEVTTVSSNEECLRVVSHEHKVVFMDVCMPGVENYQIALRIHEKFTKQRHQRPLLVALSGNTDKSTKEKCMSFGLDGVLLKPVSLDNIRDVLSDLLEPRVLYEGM

ETR1 [2] = biological target: T2, ETR1 (Arabidopsis thaliana, UniProt P49333, K91M); assay: as above
T2 sequence (P49333 1-738 K91M): T1 sequence (P49333 1-738 K91R) with R91M

% of wildtype binding (ETR1 [1]): 63 % of wildtype binding
% of wildtype binding (ETR1 [2]): ~ 6 % of wildtype binding
Compound: C=C [ethylene]
